Each structure is given as a SMILES string.

What all share (assay type): in vivo, mouse
In test [1] the test system is naturally aged C57BL6J mice. Kind of test: Hot plate joint pain test in naturally aged mice, Example 21-12, Table 27. The conditions noted are these: hot plate 55° C., untreated aged 6.9 (±1.8). How it is done: (§1) 22-month-old female C57BL6J mice (KRIBB Laboratory Animal Resource Center) were acclimated to the experimental environment for one week, after which the aged mice were randomly assigned to experimental and control groups. Eight-week-old, non-aged mice served as controls. LX-403 was mixed in a 10% ethanol solution of PEG400 and administered orally at a concentration of 25 mg/kg daily for 21 days, or administered to the skin, joints, or eyes at a concentration of 1 μM. LX-1801 was mixed in distilled water with 4% DMSO, 30% PEG300, and 5% Tween80 and administered to the skin, joints, or eyes at a concentration of 0.4 μM daily for 21 days. LX-2001 was mixed in PBS and administered to the skin, joints, or eyes at a concentration of […] daily for 21 days. LX-2002 was mixed in distilled water with 4% DMSO, 30% PEG300, and 5% Tween80 and administered to the skin, joints, or eyes at a concentration of 2 μM daily for 21 days. […] LX-2005 was mixed in distilled water with 4% DMSO, 30% PEG300, and 5% Tween80 and administered to the skin, joints, or eyes at a concentration of 90 μM daily for 21 days. LX-2007 was mixed in distilled water with 4% DMSO, 30% PEG300, and 5% Tween80 and administered to the skin, joints, or eyes at a concentration of 90 μM daily for 21 days. […] LX-3002 was mixed in distilled water with 4% DMSO, 30% PEG300, and 5% Tween80 and administered orally at a concentration of 10 mg/kg daily for 21 days. […] LX-5411 was mixed in 5% PBS and administered orally at a concentration of 10 mg/kg daily for 21 days or administered to the skin, joints, or eyes at a concentration of 3 μM. LX-5701 was mixed in PBS and administered orally at a concentration of 360 mg/kg daily for 21 days. LX-6807 was mixed in saline and administered intraperitoneally at a concentration of 1 mg/kg daily for 21 days. LX-2101 or LX-2102 was mixed in PBS solution with 5% DMSO and administered intraperitoneally at a concentration of 20 mg/kg or 10 mg/kg, respectively, daily for 21 days. The control group received only the solution in the same volume. After the end of drug administration, the methods described in each example below were performed.
(§2) RNA was extracted from joint tissue as described in Example 7-2 of WO2023-085787 A1, and qRT-PCR was performed using the synthesized cDNA. […] To analyze joint pain due to joint aging, hotplate analysis was performed. Specifically, thermal pain thresholds were measured using a hot plate. After acclimating mice to a temperature of 30° C. for 10 minutes, the time required for hind paw licking or jumping responses to occur at 55° C. was measured. To prevent tissue damage, the response was measured for less than 30 seconds, and the average value was used from five measurements.

Test [2] concerns naturally aged C57BL6J mice. Nature of the test: Geriatric depression and anxiety in aged mice, Example 21-8. The text has this:
The amount of senescent-associated secretory factor (SASP) in serum and tissues collected from mice of Examples 21-5 and 21-6 was reduced by treatment with LX-5701, LX-2101, or LX-2102. It was confirmed that removing senescent cells, which increase with aging in mice, and effectively reducing the amount of senescent-associated secretory factor (SASP) can improve symptoms of geriatric depression and anxiety.

The test system of test [3] is obesity-induced aged C57BL6J mice. Nature of the test: Anxiety, depression, lethargy (open field test) in obesity-aged mice, Example 23-4, Table 44. The settings on record: obesity-induced aged mice; daily for 21 days; activity after obesity-induced aging calculated as 100%. The method, boiled down:
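Male C57BL6J mice were made obese on a high-fat diet from 15 weeks of age. Compounds were given daily for 21 days: LX-3002 10 mg/kg orally, LX-5701 360 mg/kg orally, LX-6807 1 mg/kg intraperitoneally, with vehicle-treated controls. Open-field activity was then expressed relative to obese untreated mice set at 100%.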

In test [4] the test system is naturally aged C57BL6J mice. Nature of the test: Frailty (open field, wire hanging, grip strength, muscle and fat tissue) in naturally aged mice, Example 21-7, Table 23. The protocol:
as §1
To analyze frailty due to aging in mice, an activity test (open field test), an endurance test (wire hanging test), and a muscle strength and grip strength test (grip strength test) were performed using the same method as in Example 7-7 of WO2023-085787 A1. The table below quantitatively represents the results of activity, endurance, muscle strength, and grip strength, which are criteria for assessing frailty, under conditions in which aging was induced and the test compound was not administered or administered. The amount of each evaluation after aging was calculated as 100% and compared with the amount of each evaluation after treatment with the drug of the present invention.

In test [5] the test system is naturally aged C57BL6J mice. Kind of test: Joint aging (arthritis marker mRNA) in naturally aged mice, Example 21-12, Table 27. The protocol: as §1, §2

Turning to `O=C1C2CCN(CC2)C1CNC(=O)C(F)(F)F` (centres unmarked) [LX-5701], the “Response time (s)” value in test [1] is recorded as 4.6 (±1.3) s. In test [2] (aged mice), the “amount of SASP, p16, SA-β-gal, lipofuscin” value was “reduced”; the “symptoms of geriatric depression and anxiety” value is “improved”. Moreover, the “amount of SASP in serum and tissues” value in test [2] (mice of Examples 21-5 and 21-6) is “reduced”. In test [3], the “Open Field Test Time in Center” value was 217 (±20.1) %. Also, in test [4] (inguinal and epididymal fat, untreated aged 0.82 (±0.19)), the “Fat Mass (g)” value was 0.88 (±0.1) g. In addition, the “Muscle Mass (g)” value in test [4] (quadriceps and gastrocnemius, untreated aged 0.64 (±0.06)) is reported as 0.66 (±0.1) g. In addition, in test [4] (untreated aged = 100%), the “Grip Sterenght Test Strength (%)” value was 119 (±3.8) %, the “Open Field Test Time in Center (%)” value is reported as 259 (±38.6) % and the “Wire Hanging Test Time (%)” value is 141 (±7.3) %. The “Col2a1 mRNA (fold)” value in test [5] is given as 2.7 (±0.3) fold.

Source of the values: patent US20260306460A1, “COMPOSITION FOR REMOVING AND INHIBITING SENESCENT CELLS, AND USES THEREOF” (LIFECEUTIX CO., LTD., priority 2023, published 2026).
